Test results as given in patent publication US20020051978A1, “Methods and compositions for the identification, assessment, prevention and therapy of human cancers” (priority 2000, published 2002).
Where “and” joins values, the source holds several entries; their conditions need not be identical. Identical values can stand only once. Like-named read-outs stand apart in the source and are kept apart here.

What was measured:
[1] = tested on: 60 cancer cell lines (NCI 60 cancer cell line series); assay: NCI-DTP in vitro cancer screen, sulforhodamine B (SRB) growth inhibition, 48 hour exposure; assay type: cell-based, human
How it was run: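 Values come from the NCI-DTP screen database: -log GI50, the concentration giving 50% growth inhibition, derived from SRB cell-mass dose-response curves. Each line seeded at its own density, treated day 1 at five ten-fold-spaced doses in duplicate wells, stained after 48 h.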

[2] = tested on: 60 cancer cell lines (NCI 60 cancer cell line series); details: cited from earlier work

COc1cccc2c1C(=O)c1c(O)c3c(c(O)c1C2=O)C[C@@](O)(C(C)=O)C[C@@H]3O[C@H]1C[C@H](N)[C@H](O)[C@H](C)O1 [Daunorubicin]
6.8: -Log (GI50) ([2]; Colon COLO-250 CL4010)
3: classification of cell line as Low(1), Medium(2) or High(3) sensitivity to compound ([1]; Breast MCF7(I) (CL5001)) | classification of cell line as Low(1), Medium(2) or High(3) sensitivity to compound ([1]; Leukemia CCRF-CEM(I) (CL7003)) | classification of cell line as Low(1), Medium(2) or High(3) sensitivity to compound ([1]; Leukemia HL-60(I) (CL7008)) | classification of cell line as Low(1), Medium(2) or High(3) sensitivity to compound ([1]; Leukemia MOLT-4 (CL7006)) | classification of cell line as Low(1), Medium(2) or High(3) sensitivity to compound ([1]; Leukemia SR CL7019) | sensitivity class NSCLC NCI-H460 CL1021 ([1]; cell line NSCLC NCI-H460, CL1021)
6.8 and 7.0: -Log (GI50) ([2]; Ovarian OVCAR-3 CL6001) | -Log (GI50) ([2]; Renal RXF-393 CL9016)
6.8 and 6.9: -Log (GI50) ([2]; Renal A498 CL9013)
6.8 and 7.1: -Log (GI50) ([2]; Breast MDA-N CL5012) | -Log (GI50) ([2]; Melanoma M14 (CL10014))
7.5 and 7.8: -Log (GI50) ([2]; CNS U251(I) CL12009)
7.2 and 7.3: -Log (GI50) ([2]; Breast T-47D (CL5014))
7.9 and 8.0: -Log (GI50) ([2]; Leukemia CCRF-CEM(I) (CL7003)) | -Log (GI50) ([2]; Leukemia HL-60(I) (CL7008))
6.7 and 6.9: -Log (GI50) ([2]; Breast MDA-MB-231 CL5005) | -Log (GI50) ([2]; Breast MDA-MB-435 (CL5011)) | -Log (GI50) ([2]; Melanoma UACC-257 (CL10021))
7.6 and 7.7: -Log (GI50) ([2]; Colon SW-620 (CL4009))
1: classification of cell line as Low(1), Medium(2) or High(3) sensitivity to compound ([1]; Breast BT-549 (CL5013)) | classification of cell line as Low(1), Medium(2) or High(3) sensitivity to compound ([1]; Breast MCF7/ADRr (CL5002)) | classification of cell line as Low(1), Medium(2) or High(3) sensitivity to compound ([1]; Breast MDA-MB-231 CL5005) | classification of cell line as Low(1), Medium(2) or High(3) sensitivity to compound ([1]; Breast MDA-MB-435 (CL5011)) | classification of cell line as Low(1), Medium(2) or High(3) sensitivity to compound ([1]; Breast MDA-N CL5012) | classification of cell line as Low(1), Medium(2) or High(3) sensitivity to compound ([1]; Colon COLO-250 CL4010) | classification of cell line as Low(1), Medium(2) or High(3) sensitivity to compound ([1]; Colon HCC-2998 (CL4002)) | classification of cell line as Low(1), Medium(2) or High(3) sensitivity to compound ([1]; Colon HCT-15 CL4015) | classification of cell line as Low(1), Medium(2) or High(3) sensitivity to compound ([1]; Melanoma M14 (CL10014)) | classification of cell line as Low(1), Medium(2) or High(3) sensitivity to compound ([1]; Melanoma SK-MEL-28 (CL10008)) | classification of cell line as Low(1), Medium(2) or High(3) sensitivity to compound ([1]; Melanoma UACC-257 (CL10021)) | classification of cell line as Low(1), Medium(2) or High(3) sensitivity to compound ([1]; NSCLC EKVX (CL1008)) | sensitivity class NSCLC NCI-H332M CL1017 ([1]; cell line NSCLC NCI-H332M, CL1017) | sensitivity class Ovarian OVCAR-3 CL6001 ([1]; cell line Ovarian OVCAR-3, CL6001) | sensitivity class Ovarian OVCAR-4 CL6002 ([1]; cell line Ovarian OVCAR-4, CL6002) | sensitivity class Ovarian OVCAR-5 CL6003 ([1]; cell line Ovarian OVCAR-5, CL6003) | sensitivity class Renal A498 CL9013 ([1]; cell line Renal A498, CL9013) | sensitivity class Renal RXF-393 CL9016 ([1]; cell line Renal RXF-393, CL9016) | sensitivity class Renal TK10 CL9024 ([1]; cell line Renal TK10, CL9024) | sensitivity class Renal UO-31 CL9004 ([1]; cell line Renal UO-31, CL9004)
6.4: -Log (GI50) ([2]; Renal UO-31 CL9004)
7.6 and 7.8: -Log (GI50) ([2]; Colon HCT-116 (CL4003)) | -Log (GI50) ([2]; NSCLC HOP-62 (CL1026))
7.3 and 7.6: -Log (GI50) ([2]; Melanoma MALME-3M CL10002) | -Log (GI50) ([2]; NSCLC A549/ATCC (CL1004))
8.2 and 8.0: -Log (GI50) ([2]; Leukemia MOLT-4 (CL7006)) | -Log (GI50) ([2]; NSCLC NCI-H460 CL1021)
2: classification of cell line as Low(1), Medium(2) or High(3) sensitivity to compound ([1]; Breast T-47D (CL5014)) | classification of cell line as Low(1), Medium(2) or High(3) sensitivity to compound ([1]; CNS SF-268 CL12014) | classification of cell line as Low(1), Medium(2) or High(3) sensitivity to compound ([1]; CNS SF-295 CL12015) | classification of cell line as Low(1), Medium(2) or High(3) sensitivity to compound ([1]; CNS SNB-19 (CL12002)) | classification of cell line as Low(1), Medium(2) or High(3) sensitivity to compound ([1]; CNS SNB-75(I) CL12005) | classification of cell line as Low(1), Medium(2) or High(3) sensitivity to compound ([1]; CNS U251(I) CL12009) | classification of cell line as Low(1), Medium(2) or High(3) sensitivity to compound ([1]; Colon HCT-116 (CL4003)) | classification of cell line as Low(1), Medium(2) or High(3) sensitivity to compound ([1]; Colon HT29(I) CL4001) | classification of cell line as Low(1), Medium(2) or High(3) sensitivity to compound ([1]; Colon SW-620 (CL4009)) | classification of cell line as Low(1), Medium(2) or High(3) sensitivity to compound ([1]; Melanoma MALME-3M CL10002) | classification of cell line as Low(1), Medium(2) or High(3) sensitivity to compound ([1]; Melanoma SK-MEL-5 (CL10007)) | classification of cell line as Low(1), Medium(2) or High(3) sensitivity to compound ([1]; Melanoma UACC-62 (CL10020)) | classification of cell line as Low(1), Medium(2) or High(3) sensitivity to compound ([1]; NSCLC A549/ATCC (CL1004)) | classification of cell line as Low(1), Medium(2) or High(3) sensitivity to compound ([1]; NSCLC HOP-62 (CL1026)) | classification of cell line as Low(1), Medium(2) or High(3) sensitivity to compound ([1]; NSCLC HOP-92 (CL1029)) | classification of cell line as Low(1), Medium(2) or High(3) sensitivity to compound ([1]; NSCLC NCI-H226 CL1013) | sensitivity class NSCLC NCI-H23(I) CL1001 ([1]; cell line NSCLC NCI-H23(I), CL1001) | sensitivity class NSCLC NCI-H522 CL1003 ([1]; cell line NSCLC NCI-H522, CL1003) | sensitivity class Ovarian IGROV1 CL6010 ([1]; cell line Ovarian IGROV1, CL6010) | sensitivity class Ovarian OVCAR-8 CL6005 ([1]; cell line Ovarian OVCAR-8, CL6005) | sensitivity class Prostate DU-145 CL11003 ([1]; cell line Prostate DU-145, CL11003) | sensitivity class Prostate PC-3(I) CL11001 ([1]; cell line Prostate PC-3(I), CL11001) | sensitivity class Renal 786-O CL9018 ([1]; cell line Renal 786-O, CL9018) | sensitivity class Renal ACHN CL9023 ([1]; cell line Renal ACHN, CL9023) | sensitivity class Renal CAKI-1 CL9015 ([1]; cell line Renal CAKI-1, CL9015) | sensitivity class Renal SN12C CL9008 ([1]; cell line Renal SN12C, CL9008)
7.2 and 7.5: -Log (GI50) ([2]; NSCLC HOP-92 (CL1029))
7.2 and 7.4: -Log (GI50) ([2]; Melanoma SK-MEL-5 (CL10007))
8.1 and 8.0: -Log (GI50) ([2]; Breast MCF7(I) (CL5001)) | -Log (GI50) ([2]; Leukemia SR CL7019)
6.8 and 6.7: -Log (GI50) ([2]; Breast BT-549 (CL5013)) | -Log (GI50) ([2]; Colon HCC-2998 (CL4002))
7.5: -Log (GI50) ([2]; NSCLC NCI-H226 CL1013)
6.5 and 6.8: -Log (GI50) ([2]; NSCLC NCI-H332M CL1017) | -Log (GI50) ([2]; Ovarian OVCAR-4 CL6002)
6.5 and 6.7: -Log (GI50) ([2]; Melanoma SK-MEL-28 (CL10008))
7.4 and 7.7: -Log (GI50) ([2]; CNS SNB-19 (CL12002))
5.3: -Log (GI50) ([2]; Breast MCF7/ADRr (CL5002))
7.3 and 7.5: -Log (GI50) ([2]; NCSLC NCI-H522 CL1003)
6.2 and 5.9: -Log (GI50) ([2]; Colon HCT-15 CL4015) | -Log (GI50) ([2]; NSCLC EKVX (CL1008))
